Here are results for three molecules from patent publication EP0449026A2, “Desoxynojirimycin derivatives, process for their preparation and their use in drugs” (BAYER AG, priority 1990, dated 1991).

The subject of this test is Visna-Virus. The test is described as follows: Visna virus test: inhibition of the virus-induced cytopathic effect in infected sheep fibroblast cultures. The test is classed as cell-based. The note with it: Visna-maedi virus, Fibroblastenzellen vom Schaf, MOI ca. 0,05, 7 Tage bei 37°C 5% CO₂, concentration at which the cytopathic effect is inhibited by 50%, read microscopically. An excerpt: In Zellkulturen, die mit Visna-Virus infiziert sind, treten 5 bis 10 Tage nach der Infektion ausgeprägte virusinduzierte, zytopathische Effekte auf. Durch Behandlung der infizierten Zellkulturen mit den erfindungsgemäßen Verbindungen konnte das Auftreten dieser zytopathischen Effekte verhindert werden.
Der Visna-Virus-Test wurde nach der Methode von O. Narayan et al., Journal of Infectious Diseases 135, 5, 1977, 800 - 806 durchgeführt. Dazu wurden die erfindungsgemäßen Verbindungen im Kulturmedium in nicht zytotoxischen Konzentrationen in 96er Microtiterplatten verdünnt. Anschließend wurden Fibroblastenzellen vom Schaf (5 x 10⁴ Zellen pro Napf) in Produktionsmedium zu jedem Näpfchen zugeführt. Jedes Näpfchen erhielt dann 50 µl einer Visna-Viruslösung mit einer Titer von ca. […] TCID₅₀ (TCID = tissue culture infectious dosis). Diese Virusdosis entspricht einer MOI (Multiplizität der Infektion) von ca. 0,05.
Unter diesen Infektionsbedingungen resultierte zwischen Tag 5 und Tag 10 in einer Infektionskontrolle ohne Substanz ein virusinduzierter, zytopathischer Effekt. Die infizierten und behandelten Zellen und die Kontrollzellen wurden 7 Tage bei 37°C 5% CO₂ inkubiert.
Bei Auftreten des virusinduzierten zytopathogenen Effektes in der unbehandelten Viruskontrolle wurden die Kulturen mit Formalin fixiert und anschließend mit einer Giemsa-Lösung gefärbt. Die inhibitorische Konzentration (IC₅₀) wurde mikroskopisch als die Konzentration ermittelt, bei der der zytopathische Effekt um 50% gehemmt wurde: im Vergleich zur unbehandelten Viruskontrolle, die 100% Zellzerstörung aufwies.

Values after ≈ are worked out from the molar mass of the structure shown.

In turn, `CC=CCN1CC(OC(C)=O)C(OC(C)=O)C(O)C1CO` (stereo not drawn) [Beispiel 6] registered an IC50 of 12.5 µg/mL (≈ 41.5 µM).
In the case of `CC=CCN1CC(OC(=O)c2ccccc2)C(OC(=O)c2ccccc2)C(O)C1CO` (stereo not drawn) [Beispiel 3, N-Butenyl-2,3-dibenzoyl-desoxynojirimycin] it was 50 µg/mL (≈ 118 µM); in that of `CC=CCN1CC(OC(=O)CC(C)C)C(OC(=O)CC(C)C)C(O)C1CO` (stereo not drawn) [Beispiel 10], 20 µg/mL (≈ 51.9 µM).
